The source of these data is patent US9725554B2, “Dendritic polyurea for solubilizing active substances of low solubility” (BASF SE, priority 2009, dated 2017).

A value given as a limit tells only on which side of the number the result lay.

One data set is described as follows: physchem. Particulars: pH 7, aqueous buffer, thermodynamic from solid. Here is the method:
Then 0.2 g of each active ingredient was weighed into the batch to give a supersaturated solution. […] The mixture was then stirred at room temperature for 72 hours, using a magnetic stirrer. After a rest time of one hour, unsolubilized active ingredient was removed by filtration. The resulting clear or opaque solution was then analyzed for its active ingredient content by means of UV spectroscopy or HPLC.

How the values of data set [1] were obtained: Then 100 mg of each active ingredient was weighed into the batch to give a supersaturated solution. The mixture was then stirred at room temperature for 24 hours, using a magnetic stirrer. After a rest time of one hour, unsolubilized active ingredient was removed by centrifuging. The resulting clear or opaque solution was then analyzed for its active ingredient content by means of UV spectroscopy.
The solubility was determined as described in procedure 2.

Take `Clc1ccccc1C(c1ccccc1)(c1ccccc1)n1ccnc1` [Clotrimazole]: in the data set “physchem”, the solubility at 72 h is less than 100 µg/mL. As to “polyethylene glycol monomethyl ether [PEG monomethyl ether]”, the “Solubility of Fipronil in the presence of polymer” value in data set [1] was determined as 6 µg/mL.

Usually solubility stands for the dissolved amount per volume that the medium holds. High values mean much dissolved substance, low ones little dissolved substance.
